Data published in ChEMBL document CHEMBL1145489, “Isoniazid induces its own resistance in nonreplicating Mycobacterium tuberculosis” (Antimicrob Agents Chemother, 2007).
≈ marks a conversion by molar mass, not a printed value.

Tests used:
Format in all cases: functional
[1] = tested on: Mycobacterium tuberculosis; assay: Antimicrobial activity against Mycobacterium tuberculosis H37Rv subculture 1 with wild type katG mutation
[2] = tested on: Mycobacterium tuberculosis; assay: Antimicrobial activity against Mycobacterium tuberculosis H37Rv subculture 3 with katG D329H mutant
[3] = tested on: Mycobacterium tuberculosis; assay: Antimicrobial activity against Mycobacterium tuberculosis H37Rv subculture 4 with wild type katG mutation in presence of catalase activity
[4] = tested on: Mycobacterium tuberculosis; assay: Antimicrobial activity against Mycobacterium tuberculosis H37Rv subculture 5 with wild type katG mutation in absence of catalase activity
[5] = tested on: Mycobacterium tuberculosis; assay: Antimicrobial activity against Mycobacterium tuberculosis H37Rv subculture 6 with katG W328R mutant

NNC(=O)c1ccncc1 [ISONIAZID]
MIC [1]: 0.4 mg/L (≈ 2.92 µM)
MIC [2]: >2 mg/L
MIC [3]: >2 mg/L
MIC [4]: 0.4 mg/L (≈ 2.92 µM)
MIC [5]: >2 mg/L
